Laboratory results taken from patent US10004701B2, “Methods and compositions for treating infection” (UNIVERSITY OF ROCHESTER, priority 2012, dated 2018).
Counter-ions that a name gives are not always drawn. Like-named read-outs stand apart in the source and are kept apart here.

What was measured:
Experiment in all cases: AK assay 384-well format, Prestwick library screening
[1] = system: S. aureus strain USA300-0114; assay type: cell-based, Staphylococcus aureus; conditions: Staphylococcus aureus, USA300, 3 h, 50 μM final drug concentration
E. faecium = assay type: cell-based, Enterococcus faecium; conditions: Enterococcus faecium, 3 h, 50 μM final drug concentration
E. cloacae = assay type: cell-based, Enterobacter cloacae; conditions: Enterobacter cloacae, 3 h, 50 μM final drug concentration
E. coli = assay type: cell-based, Escherichia coli; conditions: Escherichia coli, 3 h, 50 μM final drug concentration
K. pneumoniae = assay type: cell-based, Klebsiella pneumoniae; conditions: Klebsiella pneumoniae, 3 h, 50 μM final drug concentration
P. aeruginosa = assay type: cell-based, Pseudomonas aeruginosa; conditions: Pseudomonas aeruginosa, 3 h, 50 μM final drug concentration
[2] = system: A. baumannii strain 98-37-09; assay type: cell-based, Acinetobacter baumannii; conditions: Acinetobacter baumannii, 983709, 3 h, 50 μM final drug concentration
[3] = planktonic S. aureus, positive cutoff 3-fold increase, read-out: AK-based Prestwick library screening result, S. aureus (fold increase in extracellular AK activity)
[4] = planktonic E. faecium, positive cutoff 3-fold increase, read-out: AK-based Prestwick library screening result, E. faecium (fold increase in extracellular AK activity)
[5] = planktonic E. cloacae, positive cutoff 3-fold increase, read-out: AK-based Prestwick library screening result, E. cloacae (fold increase in extracellular AK activity)
[6] = planktonic E. coli, positive cutoff 3-fold increase, read-out: AK-based Prestwick library screening result, E. coli (fold increase in extracellular AK activity)
[7] = planktonic K. pneumoniae, positive cutoff 3-fold increase, read-out: AK-based Prestwick library screening result, K. pneumoniae (fold increase in extracellular AK activity)
[8] = planktonic P. aeruginosa, positive cutoff 3-fold increase, read-out: AK-based Prestwick library screening result, P. aeruginosa (fold increase in extracellular AK activity)
[9] = planktonic A. baumannii, positive cutoff 3-fold increase, read-out: AK-based Prestwick library screening result, A. baumannii (fold increase in extracellular AK activity)
[10] = planktonic, cutoff for positive-scoring molecules 3-fold increase, read-out: AK-based Prestwick Library Screening Results, S. aureus (fold increase in extracellular AK activity)
[11] = planktonic, cutoff for positive-scoring molecules 3-fold increase, read-out: AK-based Prestwick Library Screening Results, E. faecium (fold increase in extracellular AK activity)
[12] = planktonic, cutoff for positive-scoring molecules 3-fold increase, read-out: AK-based Prestwick Library Screening Results, E. cloacae (fold increase in extracellular AK activity)
[13] = planktonic, cutoff for positive-scoring molecules 3-fold increase, read-out: AK-based Prestwick Library Screening Results, E. coli (fold increase in extracellular AK activity)
[14] = planktonic, cutoff for positive-scoring molecules 3-fold increase, read-out: AK-based Prestwick Library Screening Results, K. pneumoniae (fold increase in extracellular AK activity)
[15] = planktonic, cutoff for positive-scoring molecules 3-fold increase, read-out: AK-based Prestwick Library Screening Results, P. aeruginosa (fold increase in extracellular AK activity)
[16] = planktonic, cutoff for positive-scoring molecules 3-fold increase, read-out: AK-based Prestwick Library Screening Results, A. baumannii (fold increase in extracellular AK activity)

Row | SMILES | fold induction at 50 µM [1, 3] | fold induction at 50 µM (E. faecium; [4]) | fold induction at 50 µM (E. cloacae; [5]) | fold induction at 50 µM (E. coli; [6]) | fold induction at 50 µM (K. pneumoniae; [7]) | fold induction at 50 µM (P. aeruginosa; [8]) | fold induction at 50 µM [2, 9] | fold induction at 50 µM [1, 10] | fold induction at 50 µM (E. faecium; [11]) | fold induction at 50 µM (E. cloacae; [12]) | fold induction at 50 µM (E. coli; [13]) | fold induction at 50 µM (K. pneumoniae; [14]) | fold induction at 50 µM (P. aeruginosa; [15]) | fold induction at 50 µM [2, 16] | also measured
1 | CC1=C(C(=O)O)N2C(=O)[C@@H](NC(=O)[C@H](N)c3ccc(O)cc3)[C@H]2SC1 [Cefadroxil] | – | – | – | – | – | – | – | – | – | – | – | – | – | – | fold induction at 50 µM ([1]; planktonic S. aureus, cutoff for positive-scoring molecules 3-fold increase, read-out: AK-based Prestwick Library Screening Results, S. aureus (increase in extracellular AK activity)): 0.5; fold induction at 50 µM (E. faecium; planktonic E. faecium, cutoff for positive-scoring molecules 3-fold increase, read-out: AK-based Prestwick Library Screening Results, E. faecium (increase in extracellular AK activity)): 0.8; fold induction at 50 µM (E. cloacae; planktonic E. cloacae, cutoff for positive-scoring molecules 3-fold increase, read-out: AK-based Prestwick Library Screening Results, E. cloacae (increase in extracellular AK activity)): 1.2; fold induction at 50 µM (E. coli; planktonic E. coli, cutoff for positive-scoring molecules 3-fold increase, read-out: AK-based Prestwick Library Screening Results, E. coli (increase in extracellular AK activity)): 0.9; fold induction at 50 µM (K. pneumoniae; planktonic K. pneumoniae, cutoff for positive-scoring molecules 3-fold increase, read-out: AK-based Prestwick Library Screening Results, K. pneumoniae (increase in extracellular AK activity)): 0.8; fold induction at 50 µM (P. aeruginosa; planktonic P. aeruginosa, cutoff for positive-scoring molecules 3-fold increase, read-out: AK-based Prestwick Library Screening Results, P. aeruginosa (increase in extracellular AK activity)): 0.8; fold induction at 50 µM ([2]; planktonic A. baumannii, cutoff for positive-scoring molecules 3-fold increase, read-out: AK-based Prestwick Library Screening Results, A. baumannii (increase in extracellular AK activity)): 0.9
2 | NC(=O)c1cc[n+](CC2=C(C(=O)[O-])N3C(=O)[C@@H](NC(=O)Cc4cccs4)[C@H]3SC2)cc1 [Cefalonium] | 1.6 | 0.9 | 1.4 | 16.6 | 3.8 | 0.8 | 1.5 | – | – | – | – | – | – | – | –
3 | Cn1nnnc1SCC1=C(C(=O)O)N2C(=O)[C@@H](NC(=O)[C@H](O)c3ccccc3)[C@H]2SC1 [Cefamandole sodium salt] | – | – | – | – | – | – | – | 1.3 | 0.9 | 0.9 | 10.5 | 2.3 | 0.7 | 0.6 | –
4 | Cc1nnc(SCC2=C(C(=O)O)N3C(=O)[C@@H](NC(=O)Cn4cnnn4)[C@H]3SC2)s1 [Cefazolin sodium salt] | – | – | – | – | – | – | – | 3.1 | 0.9 | 0.9 | 16.5 | 3.6 | 0.7 | 0.5 | –
5 | CO/N=C(\C(=O)N[C@@H]1C(=O)N2C(C(=O)O)=C(C[N+]3(C)CCCC3)CS[C@H]12)c1csc(N)n1 [Cefepime hydrochloride] | 3.1 | 1 | 1.9 | 19.3 | 4.9 | 15.6 | 3.4 | – | – | – | – | – | – | – | –
6 | C=CC1=C(C(=O)O)N2C(=O)[C@@H](NC(=O)/C(=N\OCC(=O)O)c3csc(N)n3)[C@H]2SC1 [Cefixime] | – | – | – | – | – | – | – | – | – | – | – | – | – | – | fold induction at 50 µM ([1]; planktonic, cutoff for positive 3-fold increase, read-out: AK-based Prestwick Library Screening Results, S. aureus (fold increase in extracellular AK activity)): 1.2; fold induction at 50 µM (E. faecium; planktonic, cutoff for positive 3-fold increase, read-out: AK-based Prestwick Library Screening Results, E. faecium (fold increase in extracellular AK activity)): 1.1; fold induction at 50 µM (E. cloacae; planktonic, cutoff for positive 3-fold increase, read-out: AK-based Prestwick Library Screening Results, E. cloacae (fold increase in extracellular AK activity)): 21.9; fold induction at 50 µM (E. coli; planktonic, cutoff for positive 3-fold increase, read-out: AK-based Prestwick Library Screening Results, E. coli (fold increase in extracellular AK activity)): 18.6; fold induction at 50 µM (K. pneumoniae; planktonic, cutoff for positive 3-fold increase, read-out: AK-based Prestwick Library Screening Results, K. pneumoniae (fold increase in extracellular AK activity)): 4.6; fold induction at 50 µM (P. aeruginosa; planktonic, cutoff for positive 3-fold increase, read-out: AK-based Prestwick Library Screening Results, P. aeruginosa (fold increase in extracellular AK activity)): 11.7; fold induction at 50 µM ([2]; planktonic, cutoff for positive 3-fold increase, read-out: AK-based Prestwick Library Screening Results, A. baumannii (fold increase in extracellular AK activity)): 1.8
